From patent US6951647B2, “T cell binding ligand peptides and method of inducing a cellular immune response” (Cel-Sci Corporation, priority 2001, dated 2005)
Several values for one entry are separate records, joined by “and”; a condition that tells them apart may be missing. Equal values may be shown once. Marks after values point to notes of the source that are not given here.

Legend:
[1] = tested on: modified HGP-30 (mH, SEQ ID NO:6); assay: Isotype analysis (ELISA) of anti-mH antibody in sera of immunized mice; type: in vivo; design: IgG1 / IgG2a / IgG2b / IgG3: unit not given here; conditions: ELISA signal, day 42 test bleeding
Method: (§1) Mice in groups (5-10 animals per group as designated) are immunized with the LEAPS constructs (25 μg/dose) of SEQ ID NO's:37, 38 and 39, in 0.2 mL emulsified 1:1 with adjuvant (Seppic's ISA-51 or Corixa's microfluidized MPL S/E) on days 0 and 14. Mice are evaluated by Delayed Type of Hypersensitivity (DTH) by inoculation on day 26 with 20 μl of a solution of saline or mH (SEQ ID NO:6) (25 μg in saline) in the left or right ear respectively. The DTH response is determined by measurement of the ear thickness 48 hours later and expressed as increase in ear thickness (mm) of experimental ear compared to that of the control ear. Individual animal sera are collected for measurement of antibody on day 28, 42, 63 and 77. Sera from individual animals and group pools are evaluated for specific anti-mH antibody, for total antibody, IgG1, IgG2a and IgG3 antibody isotype and cross clade titer at selected time points as indicated.
The results of an isotype analysis of day 42 test bleedings with G′-mH (SEQ ID NO:37), G-mH (SEQ ID NO:38), J-mH (SEQ ID NO:39), F-mH (SEQ ID NO:40) and F-HGP-30 (SEQ ID NO:41), are shown in Table 1.
An isotype analysis for pools of day 28 test bleedings G-mH, G′-mH and m-HGP-30/KLH using either MPL S/E or ISA51 as adjuvant, are shown in Table 3.

modified HGP-30 [2] = assay: ELISA antibody screening of sera of immunized mice on modified HGP-30; type: in vivo; conditions: day 63 test bleeding, sera 1:200, individual mouse
Method: as §1, with “indicated. […]” for “indicated.”

B Clade = assay: ELISA cross clade recognition by sera of immunized mice, B Clade; type: in vivo; conditions: day 63 test bleeding, sera 1:200, individual mouse
Method: as §1
(§2) The mouse sera for the ELISA was used at a dilution of 1:200. Again, clearly, the construct provides higher signals indicative of higher levels of the antibodies that recognized other clades besides the parental one (Clade B) of mH.
(§3) A cross clade analysis for pools of day 42 test bleedings from the same groups as used in Table 3, were obtained and the results are shown in Table 4.

C Clade = assay: ELISA cross clade recognition by sera of immunized mice, C Clade; type: in vivo; conditions: day 63 test bleeding, sera 1:200, individual mouse
Method: as §1, §2, §3

D Clade = assay: ELISA cross clade recognition by sera of immunized mice, D Clade; type: in vivo; conditions: day 63 test bleeding, sera 1:200, individual mouse
Method: as §1, §2, §3

E Clade = assay: ELISA cross clade recognition by sera of immunized mice, E Clade; type: in vivo; conditions: day 63 test bleeding, sera 1:200, individual mouse
Method: as §1, §2, §3

modified HGP-30 [3] = assay: Delayed Type Hypersensitivity (DTH) ear thickness response with antisera depletion of CD4 or CD8 cells; type: in vivo, Mice
Method: as §1
Select immunoglobulin preparations were obtained from Dr. Stephen Hoffmann, Malaria Program, U.S. Navy. […] This allows one to determine some parts of the nature of various cellular (e.g., T-cell) involvement in the early stage of immune system response with the LEAPS peptide-constructs. It is recognized, however, that this is only a temporary event since new cells are continuously being developed from stem cells and the animals become resistant to the reagents.
The animals are pretreated with the antisera as indicated for 5 days before the initial immunization with peptide-construct having SEQ ID NO:37 or SEQ ID NO:39 on […]. No pretreatment is done before the booster immunization on day 14 or DTH on day 26-28. The mice are then inoculated with the test antigen or saline (control) on day 26 in the left and right ears, respectively, and the DTH response is measured on day 28. The difference between the values for the test and saline control ears is calculated for each group of five animals along with the standard error of the mean (sem) and the results are plotted (see FIG. 1). Also shown in FIG. 1 are values for the untreated animals and animals immunized on day 14 only.
The DTH (Delayed Type Hypersensitivity) data is statistically significant with a t-test of 0.05 for SEQ ID NO:39 and anti-CD8. The DTH for pretreatment of SEQ ID NO:37 immunized mice with anti-CD4 was just above the cutoff limit for statistical significance due to a weaker DTH response and small group size.

[4] = Day 14 Injection Only (immunized with construct on day 14 only), average of group of 5 mice
[5] = Treatment Anti CD4, daily for 5 days before immunization, average of group (5 mice)
[6] = Treatment Anti CD8, daily for 5 days before immunization, average of group of 5 mice
[7] = Treatment None, average of group (5 mice), ISA 51 adjuvant
[8] = Treatment Normal rat IgG, daily for 5 days before immunization, average of group (5 mice)

Substance | IgG1 ([1]; group Average) | IgG2a ([1]; group Average) | IgG2b ([1]; group Average) | IgG3 ([1]; group Average) | IgG1 ([1]; individual mouse) | IgG2a ([1]; individual mouse) | IgG2b ([1]; individual mouse) | IgG3 ([1]; individual mouse) | ELISA signal on modified HGP-30 (modified HGP-30 [2]) | ELISA signal on B Clade (B Clade) | ELISA signal on C Clade (C Clade) | ELISA signal on D Clade (D Clade) | ELISA signal on E Clade (E Clade) | also measured
DLL KNG ERI EKV EGG GAT LYS VHQ RID VKD TKE ALE KIE EEQ NKS (DGQEEKAGVVSTGLIGGGQYSWFVNGTF) [SEQ ID NO: 59, Peptide J linked by GGG spacer to modified HGP-30 (mH)] | 0.717 | 0.046 | 0.019 | 0.070 | 0.002 and 1.603 and 0.014 and 2.023 and 2.199 and 0.053 and 0.057 and 0.505 and 0.000 | 0.002 (2×) and 0.027 and 0.000 (2×) and 0.299 and 0.060 and 0.014 and 0.011 | 0.002 and 0.014 and 0.000 (5×) and 0.113 and 0.039 | 0.017 and 0.032 and 0.009 and 0.227 and 0.324 and 0.000 (2×) and 0.003 and 0.016 | 0.440 and 0.011 and 0.753 and 0.905 and 0.793 and 0.100 and 0.035 and 0.000 (2×) | 0.262 and 0.000 (6×) and 0.575 and 0.026 | 2.421 and 1.699 and 1.295 and 0.969 and 0.665 and 0.780 and 0.171 and 1.370 and 2.322 | 0.120 and 0.004 and 0.196 and 0.000 (6×) | 2.431 and 1.565 and 0.789 and 0.788 and 0.554 and 0.722 and 0.142 and 1.379 and 2.379 | Left Ear thickness, inoculated day 26 with HGP-30, measured after 48 hours (modified HGP-30 [3]; [4]): 0.254 mm; Right Ear thickness, inoculated day 26 with saline, measured after 48 hours (modified HGP-30 [3]; [4]): 0.231 mm; DTH % increase (L-R)/R (modified HGP-30 [3]; Day 14 Injection Only, average of group of 5 mice): 10.00%; Left Ear thickness, inoculated day 26 with HGP-30, measured after 48 hours (modified HGP-30 [3]; [5]): 0.288 mm; Right Ear thickness, inoculated day 26 with saline, measured after 48 hours (modified HGP-30 [3]; [5]): 0.240 mm; DTH % increase (L-R)/R (modified HGP-30 [3]; Treatment Anti CD4, average of group (5 mice)): 20.00%; Left Ear thickness, inoculated day 26 with HGP-30, measured after 48 hours (modified HGP-30 [3]; [6]): 0.233 mm; Right Ear thickness, inoculated day 26 with saline, measured after 48 hours (modified HGP-30 [3]; [6]): 0.220 mm; DTH % increase (L-R)/R (modified HGP-30 [3]; Treatment Anti CD8, average of group of 5 mice): 6.20%***; DTH % increase (L-R)/R (modified HGP-30 [3]; Treatment None, average of group (5 mice)): 29.30%; Left Ear thickness, inoculated day 26 with HGP-30, measured after 48 hours (modified HGP-30 [3]; [7]): 0.288 mm; Right Ear thickness, inoculated day 26 with saline, measured after 48 hours (modified HGP-30 [3]; [7]): 0.222 mm; Left Ear thickness, inoculated day 26 with HGP-30, measured after 48 hours (modified HGP-30 [3]; [8]): 0.296 mm; Right Ear thickness, inoculated day 26 with saline, measured after 48 hours (modified HGP-30 [3]; [8]): 0.227 mm; DTH % increase (L-R)/R (modified HGP-30 [3]; Treatment Normal rat IgG, average of group (5 mice)): 30.60%; Type of cells required for a DTH response (modified HGP-30 [3]; cell specific antisera as depletion reagent for the primary immunization (FIG. 1)): requires the presence and presumably activation of CD8+ but not CD4+ cells
VQG EES NDK GGG YSV HQR IDV KDT KEA LEK IEE EQN KSK KKA (DLLKNGERIEKVEGGGSTAPPAHGV) [SEQ ID NO: 63, Peptide F linked by GGG spacer to HGP-30] | 0.652 | 0.071 | 0.024 | 0.044 | 0.761 and 0.181 and 0.649 and 0.417 and 0.022 and 1.379 and 0.030 and 0.349 and 0.717 and 2.018 | 0.051 and 0.018 and 0.020 and 0.007 and 0.000 (2×) and 0.048 and 0.026 and 0.192 and 0.350 | 0.003 and 0.001 and 0.007 and 0.005 and 0.006 and 0.028 and 0.047 and 0.000 and 0.027 and 0.117 | 0.040 and 0.006 and 0.104 and 0.173 and 0.009 and 0.013 and 0.007 and 0.000 and 0.058 and 0.028 | 0.065 and 0.216 and 0.128 and 0.000 and 0.110 and 0.017 and 0.201 and 0.623 and 0.747 and 0.013 | 0.000 (6×) and 0.282 and 1.977 and 0.667 and 0.011 | 0.000 (5×) and 0.135 and 0.010 and 1.878 and 0.650 and 1.051 | 0.000 (5×) and 0.012 and 0.005 and 1.941 and 0.386 and 0.050 | 0.000 (7×) and 1.565 and 0.042 and 1.010 | 
